Reference: patent US20240180221A1, “METHODS AND COMPOSITIONS FOR IMPROVED TASTE QUALITY” (ALMENDRA PTE. LTD., priority 2021, published 2024)

System: human taste testers
Assay: Tasting of amino acid solutions in citric acid buffer for bitterness, with and without taste modulator
Assay type: in vivo
Settings: for bitterness intensity: 7.5 mM solution in pH 3.2 CAB, 0-15 intensity scale; for Bitter Taste Threshold in CAB: pH 3.2 Citric Acid Buffer, serial dilutions from 30 mM to 1.88 mM tasted in ascending order

Row | SMILES | bitterness intensity | Bitter Taste Threshold in CAB | bitterness onset and linger (in pH 3.2 CAB)
1 | N[C@@H](Cc1ccccc1)C(=O)O [L-Phe, L-Phenylalanine] | 5 | ca. 3 mM | –
2 | N[C@@H](Cc1c[nH]c2ccccc12)C(=O)O [L-Trp, L-Tryptophan] | 5 | ca. 3 mM | noticeably slow in onset and quite lingering
